This note sets out measurements from PubChem BioAssay (NCI).

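Test compounds were applied to cells in 96-well plates for 48 hours at 5 doses. TGI: total growth inhibition.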

Common to all, as to assay: DTP human tumour cell line panel, 48 h
For assay [1], the system named is K-562 leukemia.
For assay [2], the system named is A549 NSCLC.
For assay [3], the system named is BT-549 breast.
The subject of assay [4] is M14 melanoma.
Assay [5] concerns SF-295 CNS.
The subject of assay [6] is SR leukemia.
Assay [7] has as its system SN12C renal.
In assay [8] the test system is EKVX NSCLC.
Assay [9] relates to HCT-15 colon.
The test system of assay [10] is HL-60(TB) leukemia.
The subject of assay [11] is OVCAR-5 ovarian.

For `CC(=O)Oc1ccn2nc(C)c(Br)c2c1Br`, the TGI was 50.1 µM in assay [1]; 57.6 µM in assay [2]; 60.2 µM in assay [3]; 34.7 µM in assay [4]; over 89.3 µM in assay [5]; over 100 µM in [6]. The TGI in assay [7] is over 57.8 µM; in assay [8], over 58.5 µM; in assay [9], 33.6 µM; in assay [10], over 66.5 µM.
Regarding `COc1ccc(-c2cc(-c3ccc(Nc4ccnc5cc(C(F)(F)F)ccc45)cc3)[nH]c(=O)c2C#N)c2ccccc12`, the TGI in assay [1] was over 100 µM; in assay [11] it was over 100 µM; in assay [2], over 100 µM; in [3], over 100 µM; in assay [4], over 70.7 µM; in assay [5], over 100 µM. Moreover, the TGI was over 48.9 µM in assay [6]; over 100 µM in [7]; over 100 µM in assay [8]; over 100 µM in assay [9]; over 100 µM in [10].
`COc1nn(Cc2ccccc2F)c2ccc([N+](=O)[O-])cc12`: the TGI in [1], in assay [11], in assay [2], in assay [3], in assay [4] and in [5] was over 100 µM throughout. Besides, the TGI in assay [6], in [7], in [8], in assay [9] and in assay [10] was over 100 µM each time.
`N#Cc1c(=O)c2cc([N+](=O)[O-])ccc2n2c1[nH]c1ccccc12`: the TGI in assay [1] was over 23.4 µM; in assay [11], over 100 µM; in assay [2], over 100 µM; in assay [3], over 69.5 µM; in assay [4], over 64.6 µM; in assay [5], over 52.2 µM. Also, the TGI in [6] is 96.6 µM; in [7], over 100 µM; in assay [8], over 100 µM; in assay [9] it was over 61.6 µM; in [10], over 100 µM.
As to `C#CC(O)/C=C/CCCCCCC#CC/C=C\CC#CCCCCCC/C=C/C(O)C#C` (stereo not drawn), the TGI in [1] amounted to 9.67 µM; in assay [11], 7.86 µM; in assay [2] it was 10.2 µM; in [3] it was 9.61 µM; in assay [4] it was 2.26 µM; in assay [5] it was 26.9 µM. Further, the TGI in assay [6] was determined as 18 µM; in [7] it was 4.02 µM; in assay [8] it was 5.23 µM; in assay [9], 6.94 µM; in assay [10] it was 3.86 µM.
Consider `Cc1cccc(-c2cc(=O)c3ccc(C)nc3[nH]2)c1`, for which the TGI in [1] was over 100 µM; in [11], over 100 µM; in assay [2], over 100 µM; in assay [3] it was over 100 µM; in [4], over 100 µM; in assay [5], 14.9 µM. The TGI is 2.07 µM in [6]; over 100 µM in [7]; over 100 µM in assay [8]; over 35.2 µM in [9]; 0.526 µM in assay [10].
`O=C1CC(Br)c2c(Cl)sc(Cl)c21` (stereo not drawn): the TGI stood at 13.7 µM in assay [1]; 36.3 µM in assay [11]; 45.4 µM in assay [2]; 61.4 µM in [3]; 26.5 µM in assay [4]; 30.2 µM in [5]. The concentration for total growth inhibition (TGI) in assay [6] came to 32.2 µM; in [7] it was 30.6 µM; in assay [8], 48.2 µM; in [9] it was 28.1 µM; in assay [10], 6.9 µM.
With `O=C1Oc2ccccc2C(=O)/C1=C/N1C(=O)/C(=C/c2ccc([N+](=O)[O-])cc2)SC1=S`, the TGI was 69.8 µM in assay [1]; over 100 µM in assay [11]; over 100 µM in assay [2]; 31.2 µM in assay [3]; 65.6 µM in assay [4]; 68 µM in assay [5]. For the same compound, the TGI is over 100 µM in assay [6]; 51.6 µM in assay [7]; over 100 µM in [8]; 61.7 µM in [9]; over 100 µM in assay [10].
As to `Cc1cc(C)c2c(n1)S(=O)(=O)N(CCCN1CCN(c3cccc(C(F)(F)F)c3)CC1)/C(=C(\O)c1ccccc1)C2=O`, the TGI is over 100 µM in assay [1]; 39 µM in [11]; over 100 µM in [2]; 57.3 µM in assay [3]; over 100 µM in [4]; 19.7 µM in [5]. Further, the TGI in assay [6] was 18.7 µM; in assay [7], over 100 µM; in [8] it was 37.6 µM; in [9], 67 µM; in assay [10], 8.97 µM.
Regarding `CO/N=C1\CCC2(O)C3Cc4ccc(O)c5c4C2(CCN3CC2CC2)[C@H]1O5` (stereo partly drawn), the TGI in assay [1], in assay [11], in assay [2], in assay [3], in assay [4] and in assay [5] was over 100 µM throughout. Also, the TGI in [6], in assay [7], in assay [8], in [9] and in assay [10] was over 100 µM in each case.
Turning to `C[n+]1c2ccccc2c(CNC(CCC(N)=O)C(=O)O)c2ccccc21` (stereo not drawn), the TGI in [1] is 6.51 µM; in assay [11] it was 18 µM; in [2], 11.8 µM; in [3], 10.1 µM; in assay [4], 12.2 µM; in [5] it was 16 µM. Moreover, the total growth inhibition concentration (TGI) in assay [6] is 3.71 µM; in assay [7] it was 7.36 µM; in assay [8], 12.9 µM; in assay [9], 4.31 µM; in [10], 7.65 µM.
Consider `C=C1C(=O)OC2/C=C(\C)C(O)CC(O)C(C)(O)CC(OC(=O)/C(C)=C/C)C12` (stereo not drawn), for which the TGI in assay [1] is over 100 µM; in [11], over 100 µM; in assay [2] it was over 100 µM; in assay [3], 83.9 µM; in [4], over 100 µM; in assay [5] it was over 100 µM. Besides, the concentration for total growth inhibition (TGI) was over 55.9 µM in [6]; over 100 µM in assay [7]; over 100 µM in [8]; over 100 µM in [9]; over 82.8 µM in [10].
For `CCOC(=O)CCC(C(=O)OCC)n1nc2ccc(Nc3c(C)[n+]([O-])c4cc(Cl)ccc4[n+]3[O-])cc2n1` (stereo not drawn), the TGI in assay [1], in assay [11], in assay [2], in [3], in assay [4] and in assay [5] was over 100 µM in each case. In addition, the concentration for total growth inhibition (TGI) in assay [6], in assay [7], in assay [8], in assay [9] and in assay [10] was over 100 µM throughout.
On to `CC(C)(C)c1cc(-c2ccc(-c3cc(C(C)(C)C)c(O)c(C(C)(C)C)c3)cc2)cc(C(C)(C)C)c1O`, for which the TGI in assay [1], in assay [11], in assay [2], in assay [3], in assay [4] and in [5] was over 100 µM in each case. For the same compound, the concentration for total growth inhibition (TGI) in assay [6], in assay [7], in assay [8], in [9] and in assay [10] was over 100 µM each time.
Turning to `COC(=O)c1ccc2n1C1CC3CC(CC2C3)C1`, the TGI in [1], in assay [11], in assay [2], in [3], in assay [4] and in [5] was over 100 µM throughout. The TGI was over 100 µM in [6]; over 100 µM in [7]; over 100 µM in [8]; over 100 µM in assay [9]; 54.7 µM in [10].
In the case of `O=C(O)c1c(-c2c3ccc(=O)cc-3oc3cc(O)ccc23)cc2ccccc2c1-c1ccccc1`, the TGI in assay [1] is over 46.4 µM; in assay [11], over 100 µM; in assay [2], over 100 µM; in [3], over 100 µM; in [4], over 100 µM; in [5], over 100 µM. Moreover, the concentration for total growth inhibition (TGI) in assay [6], in assay [7], in assay [8], in assay [9] and in assay [10] was over 100 µM each time.
In the case of `COC(=O)C1OC(O[C@H]2CC[C@]3(C)[C@H]4CC=C5[C@@H]6CC(C)(C)CC[C@]6(C(=O)OC)[C@H](O)C[C@@]5(C)[C@]4(C)CC[C@H]3C2(C)C)C(O)C(O)C1O` (stereo partly drawn), the TGI in assay [1] was determined as 15 µM; in [11], 26 µM; in [2] it was 17.4 µM; in assay [3] it was 30.4 µM; in assay [4] it was 18.3 µM; in assay [5] it was 23.1 µM. The TGI is 15.9 µM in assay [6]; 25.9 µM in assay [7]; 21.4 µM in [8]; 22.2 µM in assay [9]; 13.7 µM in assay [10].
Turning to `COc1ccc(CNc2nc(NCc3ccc(OC)cc3)nc(Nc3ccccc3)n2)cc1`, the TGI in assay [1] was over 100 µM; in [11] it was over 100 µM; in assay [2] it was over 100 µM; in assay [3], over 100 µM; in assay [4], over 100 µM; in [5], 8.83 µM. Moreover, the TGI in assay [6] was 3.81 µM; in assay [7], over 100 µM; in [8], over 100 µM; in [9], 13.5 µM; in assay [10], over 100 µM.
For `Cc1cccc2sc(NC(=O)c3cc([N+](=O)[O-])ccc3Cl)nc12`, the TGI in [1] was over 100 µM; in assay [11] it was 28.4 µM; in [2] it was 51.7 µM; in assay [3], 9.5 µM; in assay [4], 5.32 µM; in assay [5] it was over 100 µM. Also, the concentration for total growth inhibition (TGI) in assay [6] is over 100 µM; in assay [7] it was 3.34 µM; in assay [8], over 100 µM; in assay [9] it was over 29.1 µM; in assay [10], over 100 µM.
For the compound `OCCCSc1ccccc1SCCCO`, the TGI in [1], in assay [11], in [2], in assay [3], in assay [4] and in [5] was over 100 µM in each case. Moreover, the TGI in assay [6], in assay [7], in [8], in [9] and in assay [10] was over 100 µM each time.
As for `COC(=O)[C@H]1[C@H](C(=O)OC)[C@@H](C)c2c(ccc3c2[nH]c2ccccc23)[C@@H]1C`, the TGI in assay [1], in assay [11], in assay [2], in assay [3], in assay [4] and in assay [5] was over 100 µM each time. Also, the TGI was over 100 µM in assay [6]; 33.5 µM in assay [7]; over 100 µM in [8]; over 100 µM in assay [9]; over 100 µM in assay [10].
As to `C=CCN1C(=O)/C(=C/c2ccc(C)cc2)N=C1SC/C=C/C`, the TGI was 89.4 µM in assay [1]; over 100 µM in [11]; over 100 µM in assay [2]; over 100 µM in assay [3]; over 100 µM in [4]; over 100 µM in assay [5]. Moreover, the TGI in assay [6] is 42.4 µM; in [7], over 100 µM; in assay [8], over 100 µM; in [9], over 100 µM; in assay [10], 47.9 µM.
Turning to `CCOC(=O)CCC(NC(=O)c1ccc(CNc2nc3cc(N)cc(N)c3nc2-c2ccccc2)cc1)C(=O)OCC` (stereo not drawn), the TGI was over 100 µM in assay [1]; over 100 µM in assay [11]; over 100 µM in assay [2]; over 100 µM in assay [3]; over 61.6 µM in [4]; over 100 µM in assay [5]. In addition, the TGI in assay [6] was 23.7 µM; in assay [7], over 90.2 µM; in [8], over 100 µM; in assay [9], over 100 µM; in [10], over 45 µM.
Take `CC(C)(C)NC(NC(C)(C)C)=C(C(Cl)=C(Cl)Cl)[N+](=O)[O-]`: the TGI in assay [1], in assay [11], in assay [2], in assay [3], in assay [4] and in assay [5] was over 100 µM each time. Further, the TGI in assay [6], in assay [7], in assay [8], in assay [9] and in assay [10] was over 100 µM in each case.

The term TGI denotes the concentration at which net growth stops. Lower therefore signals greater sensitivity of the cells.
